Experimental data from patent EP4379060A1, “HIGH-EFFICIENCY PRODUCTION OF HYDROXYECTOINE” (Universität des Saarlandes, priority 2022, dated 2024).

What was measured:
[1] = tested on: C. glutamicum; test: Microbioreactor cultivation at different initial ectoine levels (growth, on-line OD620); type: cell-based, Corynebacterium glutamicum ATCC 13032; details: 30°C
Experimental: Cultivation of C. glutamicum in microbioreactors. Screening of C. glutamicum strains was carried out in 48-well flower plates with transparent bottom for online biomass sensing using a microbioreactor (BioLector, Beckman Coulter GmbH, Baesweiler, Germany, Baesweiler, Germany) at 1,300 rpm, 85% humidity and different temperatures, as given below. Two subsequent pre-cultures were conducted in shake flasks as described above. For main cultures, each well of the microtiter plate was filled with 1 mL of minimal glucose medium and inoculated to an initial OD660 of 0.5. Over the course of the cultivation, biomass was measured online as light backscatter at 620 nm. All experiments were conducted as triplicate.
In a first experiment the inventors examined if C. glutamicum, expressing ectD from P. stutzeri, can convert externally supplied ectoine into hydroxyectoine and, beneficially, excrete the latter (Fig. 1c). […]

[2] = tested on: C. glutamicum; test: Quantification of intracellular ectoines and free amino acids in cells grown with ectoine; type: cell-based, Corynebacterium glutamicum ATCC 13032; details: 37°C, 10 h
Experimental: Cultivation of C. glutamicum in shake flask. Cultures of C. glutamicum were incubated in baffled shake flasks (10% filling volume) in an orbital shaker at 230 rpm (Multitron, Infors AG, Bottmingen, Switzerland). For pre-culturing, cells were first grown overnight in complex BHI medium using a single colony from a 2-day pre-incubated BHI agar plate as inoculum. Subsequently, cells were harvested (8500 xg, 5 min, RT), washed once with minimal medium, and used to inoculate a second pre-culture in minimal glucose medium. The second pre-culture was then harvested during the exponential phase (8500 xg, 5 min, RT), washed once, and used to inoculate the main culture, again in minimal medium. The temperature was set to 30°C for precultures and 37°C for main cultures. All experiments were conducted as triplicate.
Quantification of intracellular metabolites. To quantify intracellular amino acids and ectoines, 2 mL of mid-exponentially growing cells were sampled by fast filtration (cellulose nitrate filter, 0.2 µm, 47 mm, Sartorius, Göttingen, Germany) (Bolten CJ, Kiefer P, Letisse F, Portais J-C, Wittmann C: Sampling for Metabolome Analysis of Microorganisms. Analytical chemistry 2007, 79:3843-3849.), including twice washing of the cells on the filter with two volumes of 2.5% NaCl. The filters were then transferred into cups prefilled with a 220 µM α-amino butyric acid solution as internal standard for later quantification. […] The obtained supernatants were collected for analysis, and intracellular amino acids were quantified by HPLC (Hans MA, Heinzle E, Wittmann C: Quantification of intracellular amino acids in batch cultures of Saccharomyces cerevisiae. Appl Microbiol Biotechnol 2001, 56:776-779.).
Quantification of ectoine and hydroxyectoine. Concentrations of ectoine and hydroxyectoine were analyzed by HPLC (Agilent Series 1290 Infinity, Agilent, Santa Clara, CA, USA). […] External standards were applied for quantification.
Quantification of amino acids. Amino acid levels of cell lysates were quantified using HPLC (Agilent Series 1290 Infinity, Agilent, Santa Clara, CA, USA) with α-amino butyric acid as internal standard. For this, the analytes were derivatized with ortho-phthalaldehyde and 9-fluorenylmethyl chloroformate and were separated and quantified as described previously (Krömer J, Fritz M, Heinzle E, Wittmann C: In vivo quantification of intracellular amino acids and intermediates of the methionine pathway in Corynebacterium glutamicum. Analytical biochemistry 2005, 340:171-173.).
For this purpose, the inventors extracted and quantified intracellular ectoine, hydroxyectoine, and free proteinogenic amino acids from the three strains during mid exponential growth, i. e. after 10 h (Fig. 3). […]

[3] = hydroxyectoine producers, glucose + 5 mM ectoine

CC1=NC(C(=O)O)CCN1 (stereo not drawn) [ectoine, 1,4,5,6-tetrahydro-2-methyl-4-pyrimidinecarboxylic acid]
cell fitness ([1]; increasing ectoine concentration, strains expressing MSM, VSA, HEL, SCO EctD variants): unchanged
cell fitness (specific growth rate) ([1]; initial ectoine 5, 10, 15 mM, strains pClik and pCES PtufectD^PST): not affected
reduction of intracellular I-glutamic acid ([2]; MSM strain, glucose + 5 mM ectoine, versus control without ectoine): up to 47%
intracellular pools of I-glutamic acid, I-glutamine, and I-proline ([2]; ectoine added to non-producing control strain with empty pCES vector, 5 mM): strongly reduced
drop of intracellular level of I-glutamine [2, 3]: up to 61%
drop of intracellular level of I-proline [2, 3]: up to 50%
